From patent publication US7087766B2, “Reagents for the quantitation of active oxygen” (Daiichi Pure Chemicals Co., Ltd., priority 2000, dated 2006)
Entries after “also recorded” stand apart in the source; their conditions may differ.

How the values were obtained:
[1] = Reactivity with hydroxyl radical (Fenton system: hydrogen peroxide and ferrous perchlorate), fluorescence intensity; conditions: for changes in fluorescence intensity between before and after treatment, Hydroxyl radical: 10 μM probe, 100 mM sodium phosphate buffer pH 7.4, Iron(II) perchlorate (100 μM) and hydrogen peroxide (1 mM), 30 minutes, ex 490 nm/em 510 nm; for reactivity to hydroxyl radical (in words): condition a of Table 1
Method: (§1) The excitation spectrum and the fluorescence spectrum of the 10 μM ss-3F solution were measured using a fluorophotometer F4500 (manufactured by Hitachi, Ltd.). Slit width was 2.5 nm for both the excitation spectrum and the fluorescence spectrum, and the photomultiplier voltage was 950 V. Measurement was carried out at the excitation wavelength of 490 nm and the fluorescence wavelength of 510 nm unless otherwise specified.
Further, to investigate the reaction between ss-3F and hydroxyl radical, hydrogen peroxide was added to the 10 μM ss-3F solution to a final concentration of 1 mM, and then the mixture was added with ferrous perchlorate to a final concentration of 100 μM for each addition (5 times in total) to measure changes in fluorescence intensity with time (Fenton system).
(§2) The solutions described below were analyzed by HPLC. The absorbance at 460 nm was measured using XTerra™RP18 5 μm (4.6×250 mm) as a column and an aqueous solution of acetonitrile/0.1M NaHCO3=1/1 as an eluate with an elution rate of 1 ml/min. • (A) the 10 μM ss-3F solution • (B) a reaction solution prepared by adding EP-1 to the 10 μM ss-3F solution so as to give a final concentration of 5 mM and reacting at 37° C. for 8 hours • (C) a solution prepared by adding hydrogen peroxide to the 10 μM ss-3F solution so as to give a final concentration of 1 mM, and further adding ferrous perchlorate so as to give a final concentration of 500 μM, and then allowing to stand at room temperature for about 3 hours • (D) a 1 μM fluorescein solution
(§3) The compounds of the present invention, ss-1F, and ss-3F were tested. DCFH (2′,7′-dichlorodihydrofluorescein) was used as a control which was produced by hydrolyzing DCFH-DA (2′,7′-dichlorodihydrofluorescein diacetate; Molecular Probes, D-399) as a commercially available agent for detecting reactive oxygen species. DCFH-DA was hydrolyzed in accordance with the method by Hempel et al. (Stephen L. Hempel et al., Free Radical Biology & Medicine, 27, 146–159, 1999) under an alkali condition to obtain DCFH. […] The 10 μM DCFH solution was used for the test immediately after the preparation. […] Each of ss-1F, ss-3F, and DCFH was treated under conditions “a” to “f” for 30 minutes (2 hours and 30 minutes only for “f”) and changes in fluorescence intensity between before and after treatment were measured. The fluorescence intensity was measured under the same conditions as those in Example 4.

[2] = Reactivity with singlet oxygen (EP-1 naphthalene endoperoxide system), fluorescence intensity; conditions: for changes in fluorescence intensity between before and after treatment, Singlet oxygen: 10 μM probe, 100 mM sodium phosphate buffer pH 7.4, EP-1 (100 μM), 30 minutes
Method: as §1
Subsequently, in order to investigate the reaction between ss-3F and singlet oxygen, a solution of EP-1 (a singlet oxygen generation system, i.e., the naphthalene endoperoxide compound; Saito, I, .et al., J. Am. Chem. Soc., 107, pp. 6329–6334, 1985) in dimethylformamide (DMF) was added to the 10 μM ss-3F solution to final concentrations of 1 mM, 2 mM, and 5 mM, and changes in fluorescence intensity with time was measured (EP-1 system). The temperature of the solution at this time was at 37° C. The excitation spectrum and the fluorescence spectrum of the solution after the completion of the reaction were measured under the same conditions as described above. […] Also in FIG. 3, generation of fluorescence was observed, and it was verified that ss-3F generated fluorescence upon reaction with singlet oxygen.
as §2
(§4) A fluorescence spectrum of ss-3 obtained in Example 1 was measured under the same conditions as those in 1) of Example 4, except that the excitation wavelength was at 370 nm and the fluorescence wavelength was at 450 nm. The result obtained in the absence of EP-1 was shown in FIG. 7, and the result of fluorescence spectrum of the solution after the completion of the reaction with EP-1 was shown in FIG. 8.
as §3

[3] = Reactivity with superoxide (KO2), fluorescence intensity; conditions: 10 μM probe, 100 mM sodium phosphate buffer pH 7.4; KO2 (100 μM); 30 minutes
Method: as §1, §3

[4] = Reactivity with hydrogen peroxide, fluorescence intensity; conditions: for changes in fluorescence intensity between before and after treatment, Hydrogen peroxide: 10 μM probe, 100 mM sodium phosphate buffer pH 7.4, Hydrogen peroxide (1 mM), 30 minutes; for reaction with hydrogen peroxide per se (in words): result of Example 6
Method: as §1, §3

[5] = Reactivity with nitrogen monoxide (NOC13), fluorescence intensity; conditions: 10 μM probe, 100 mM sodium phosphate buffer pH 7.4; NOC13 (100 μM); 30 minutes
Method: as §1, §3

[6] = Autoxidation under a fluorescent lamp, fluorescence intensity; format: physicochemical; conditions: for changes in fluorescence intensity between before and after treatment, Autoxidation: 10 μM probe, 100 mM sodium phosphate buffer pH 7.4, just under a fluorescent lamp for 2 hours and 30 minutes; for autoxidation (in words): condition f of Table 1
Method: as §1, §3

horseradish peroxidase = assay: Specific detection of peroxidase activity (HRP/H2O2), fluorescence spectrum; format: biochemical; conditions: 10 μM probe, horseradish peroxidase 0.2 μM, hydrogen peroxide 0 to 5.0 μM, pH 7.4; fluorescence wavelength 515 nm
Method: A 100 mM phosphate buffer (pH 7.4) of horseradish peroxidase was added to the resulting solution of ss-1F or ss-3F to a final concentration of 0.2 μM, and then hydrogen peroxide was added to final concentrations of 0, 0.01, 0.05, 0.1, 0.5, 1.0, 2.0, and 5.0 μM, and the fluorescence spectrum was immediately measured. The fluorescence spectrum was measured under the same conditions as those in 1) of Example 4, except that the fluorescence wavelength was at 515 nm.

[7] = Excitation and fluorescence spectrum of the compound itself; format: physicochemical
Method: as §1, §4

With `O=C(O)c1ccccc1C1c2cc(Cl)c(O)cc2Oc2cc(O)c(Cl)cc21` [DCFH, 2′,7′-dichlorodihydrofluorescein, reference compound] the “changes in fluorescence intensity between before and after treatment, Hydroxyl radical” value (from here on “changes … after treatment, Hydroxyl radical”) [1] was 4.8 × 10^3, the “reactivity to hydroxyl radical (in words)” value (from here on “reactivity”) [1] was “successfully reacted with hydroxyl radical” and the “changes in fluorescence intensity between before and after treatment, Singlet oxygen” value (“changes … after treatment, Singlet oxygen” for short) [2] was 26. For the same compound, the “changes in fluorescence intensity between before and after treatment, Superoxide” value (“changes … Superoxide” below) [3] was 67, the “changes in fluorescence intensity between before and after treatment, Hydrogen peroxide” value (“changes … Hydrogen peroxide” below) [4] was 1.9 × 10^2 and the “changes in fluorescence intensity between before and after treatment, Nitrogen monoxide” value (shortened to “changes … Nitrogen monoxide”) [5] was 1.5 × 10^2. For the same compound, the “changes in fluorescence intensity between before and after treatment, Autoxidation” value (“changes … Autoxidation” for short) [6] was 1.6 × 10^3 and the “autoxidation (in words)” value [6] was “high”.
With `O=C(O)c1ccccc1-c1c2ccc(=O)cc-2oc2cc(Oc3ccc(O)cc3)ccc12` [ss-1F] the “changes … after treatment, Hydroxyl radical” value [1] was 3.3 × 10^2, the “reactivity” value [1] was “high reactivity to hydroxyl radical” and the “changes … after treatment, Singlet oxygen” value [2] was 4.8. The “changes … Superoxide” value [3] was 8.3, the “changes … Hydrogen peroxide” value [4] was 1.8 and the “reaction with hydrogen peroxide per se (in words)” value [4] was “do not react with hydrogen peroxide”. For the same compound, the “changes … Nitrogen monoxide” value [5] was 6.0, the “changes … Autoxidation” value [6] was <1.0 and the “autoxidation (in words)” value [6] was “completely free from autoxidation; also recorded: no autoxidation”. For the same compound, the “fluorescence intensity with HRP/H2O2” value (horseradish peroxidase) was “increase in fluorescence intensity in a concentration-dependent manner”.
In the case of `Nc1ccc(Oc2ccc3c(-c4ccccc4C(=O)O)c4ccc(=O)cc-4oc3c2)cc1` [ss-3F], the “changes … after treatment, Hydroxyl radical” value [1] is reported as 6.0 × 10^2, the “changes in fluorescence intensity with time on reaction with hydroxyl radical” value ([1]; 10 μM solution, hydrogen peroxide 1 mM, ferrous perchlorate 100 μM per addition (5 times)) is reported as “increase in fluorescence intensity was observed at each time of the addition of ferrous perchlorate” and the “reactivity” value [1] is reported as “high reactivity to hydroxyl radical”. For the same compound, the “changes … after treatment, Singlet oxygen” value [2] was 8.7, the “changes in fluorescence intensity with time on reaction with singlet oxygen” value ([2]; 10 μM solution, EP-1 1 mM, 2 mM, 5 mM, 37° C., ex 490 nm/em 510 nm) was “increase in fluorescence intensity was observed dependently on EP-1 concentrations as well as in time dependent manner” and the “changes … Superoxide” value [3] was 5.6. The “changes … Hydrogen peroxide” value [4] was <1.0, the “reaction with hydrogen peroxide per se (in words)” value [4] was “do not react with hydrogen peroxide” and the “changes … Nitrogen monoxide” value [5] was <1.0. The “changes … Autoxidation” value [6] was <1.0, the “autoxidation (in words)” value [6] was “completely free from autoxidation; also recorded: no autoxidation” and the “fluorescence intensity with HRP/H2O2” value (horseradish peroxidase) was “increase in fluorescence intensity in a concentration-dependent manner”. The “fluorescence of the compound per se” value ([7]; 10 μM in 100 mM sodium phosphate buffer pH 7.4, excitation 490 nm, fluorescence 510 nm) was “emits no fluorescence”.
In the case of `Nc1ccc(Oc2ccc3ccc(=O)oc3c2)cc1` [ss-3], the “fluorescence after reaction with singlet oxygen” value ([2]; after completion of the reaction with EP-1, excitation 370 nm, fluorescence 450 nm) is reported as “emits fluorescence upon reaction with singlet oxygen” and the “fluorescence of the compound itself” value ([7]; absence of EP-1, excitation 370 nm, fluorescence 450 nm) is reported as “substantially non-fluorescent”.
